According to patent US6737383B1, “Herbicidal oxadiazolidines” (priority 1999, dated 2004):

Legend:
Green foxtail [1] = experiment: Test D green foxtail; assay type: in vivo; details: Postemergence, 0 to 100 scale, 0 no injury, 100 complete control
tall mallow = experiment: Test D tall mallow; assay type: in vivo, Malva sylvestris; details: Postemergence, 0 to 100 scale
guineagrass = experiment: Test D guineagrass; assay type: in vivo, Panicum maximum; details: Postemergence, 0 to 100 scale
large crabgrass = experiment: Test D large crabgrass; assay type: in vivo, Digitaria sanguinalis; details: Postemergence, 0 to 100 scale
bermuda-grass = experiment: Test D bermudagrass; assay type: in vivo, Cynodon dactylon; details: Postemergence, 0 to 100 scale
dallisgrass = experiment: Test D dallisgrass; assay type: in vivo, Paspalum dilatatum; details: Postemergence, 0 to 100 scale
Green foxtail [2] = experiment: Test D green foxtail; assay type: in vivo; details: Postemergence, 0 to 100 scale, 0 no injury, 100 complete control; remark: listed apart in the source
sandbur = experiment: Test D sandbur; assay type: in vivo, Cenchrus echinatus; details: Postemergence, 0 to 100 scale
Johnson grass = experiment: Test D Johnson grass; assay type: in vivo, Sorghum halepense; details: Postemergence, 0 to 100 scale
Alexandergrass = experiment: Test D Alexandergrass; assay type: in vivo, Brachiaria plantaginea; details: Postemergence, 0 to 100 scale
goosegrass = experiment: Test D goosegrass; assay type: in vivo, Eleusine indica; details: Postemergence, 0 to 100 scale
purple nutsedge = experiment: Test D purple nutsedge; assay type: in vivo, Cyperus rotundus; details: Postemergence, 0 to 100 scale
common ragweed = experiment: Test D common ragweed; assay type: in vivo, Ambrosia elatior; details: Postemergence, 0 to 100 scale
[3] = Rate 16 g/ha, 0 no injury, 100 complete control
[4] = Rate 32 g/ha, 0 no injury, 100 complete control
[5] = Rate 64 g/ha, 0 no injury, 100 complete control
[6] = Rate 125 g/ha, 0 no injury, 100 complete control

COCC(C)n1c(=O)on(C(=O)N(c2ccc(F)cc2F)C(C)C)c1=O (centres unmarked) [Compound 357]
Plant response rating, Green foxtail (Green foxtail [1]; Rate 64 g/ha): 100
Plant response rating, Green foxtail (Green foxtail [1]; Rate 125 g/ha): 100
Plant response rating, Tall Mallow (tall mallow; [3]): 10
Plant response rating, Tall Mallow (tall mallow; [4]): 10
Tall Mallow plant response rating (tall mallow; [5]): 20
Tall Mallow plant response rating (tall mallow; [6]): 50
Plant response rating, Tall Mallow (tall mallow; Rate 250 g/ha): 100
Plant response rating, Guineagrass (guineagrass; [3]): 0
Plant response rating, Guineagrass (guineagrass; [4]): 0
Guineagrass plant response rating (guineagrass; [5]): 60
Plant response rating, Guineagrass (guineagrass; [5]): 20
Plant response rating, Guineagrass (guineagrass; [6]): 70
Plant response rating, Guineagrass (guineagrass; Rate 250 g/ha): 100
Plant response rating, Large crabgrass (large crabgrass; [3]): 100
Plant response rating, Large crabgrass (large crabgrass; [4]): 100
Plant response rating, Large crabgrass (large crabgrass; [5]): 100
Plant response rating, Large crabgrass (large crabgrass; [6]): 100
Plant response rating, Large crabgrass (large crabgrass; Rate 250 g/ha): 100
Plant response rating, Bermudagrass (bermuda-grass; [3]): 90
Plant response rating, Bermudagrass (bermuda-grass; [4]): 100
Plant response rating, Bermudagrass (bermuda-grass; [5]): 100
Plant response rating, Bermudagrass (bermuda-grass; [6]): 100
Plant response rating, Bermudagrass (bermuda-grass; Rate 250 g/ha): 100
Plant response rating, Dallisgrass (dallisgrass; [3]): 0
Plant response rating, Dallisgrass (dallisgrass; [4]): 20
Plant response rating, Dallisgrass (dallisgrass; [5]): 100
Plant response rating, Dallisgrass (dallisgrass; [6]): 100
Plant response rating, Dallisgrass (dallisgrass; Rate 250 g/ha): 100
Green foxtail plant response rating (Green foxtail [2]; Rate 64 g/ha): 100
Green foxtail plant response rating (Green foxtail [2]; Rate 125 g/ha): 100
Plant response rating, Sandbur (sandbur; [3]): 0
Plant response rating, Sandbur (sandbur; [4]): 0
Sandbur plant response rating (sandbur; [5]): 0
Sandbur plant response rating (sandbur; [6]): 0
Plant response rating, Sandbur (sandbur; Rate 250 g/ha): 100
Plant response rating, Johnsongrass (Johnson grass; [3]): 0
Plant response rating, Johnsongrass (Johnson grass; [4]): 0
Plant response rating, Johnsongrass (Johnson grass; [5]): 0
Plant response rating, Johnsongrass (Johnson grass; [6]): 60
Plant response rating, Johnsongrass (Johnson grass; Rate 250 g/ha): 90
Plant response rating, Alexandergrass (Alexandergrass; [3]): 0
Plant response rating, Alexandergrass (Alexandergrass; [4]): 20
Plant response rating, Alexandergrass (Alexandergrass; [5]): 100
Plant response rating, Alexandergrass (Alexandergrass; [6]): 100
Plant response rating, Alexandergrass (Alexandergrass; Rate 250 g/ha): 100
Plant response rating, Goosegrass (goosegrass; [3]): 90
Plant response rating, Goosegrass (goosegrass; [4]): 100
Plant response rating, Goosegrass (goosegrass; [5]): 100
Plant response rating, Goosegrass (goosegrass; [6]): 100
Plant response rating, Goosegrass (goosegrass; Rate 250 g/ha): 100
Plant response rating, Purple nutsedge (purple nutsedge; [3]): 0
Plant response rating, Purple nutsedge (purple nutsedge; [4]): 0
Purple nutsedge plant response rating (purple nutsedge; [5]): 0
Purple nutsedge plant response rating (purple nutsedge; [6]): 0
Plant response rating, Purple nutsedge (purple nutsedge; Rate 250 g/ha): 50
Plant response rating, C. ragweed (common ragweed; [3]): 0
Plant response rating, C. ragweed (common ragweed; [5]): 0
Plant response rating, C. ragweed (common ragweed; [6]): 0
Plant response rating, C. ragweed (common ragweed; Rate 250 g/ha): 50

CCC(CC)n1c(=O)on(C(=O)N(c2ccc(F)cc2)C(C)C)c1=O [Compound 358]
Plant response rating, Green foxtail (Green foxtail [1]; Rate 64 g/ha): 100
Plant response rating, Green foxtail (Green foxtail [1]; Rate 125 g/ha): 100
Plant response rating, Tall Mallow (tall mallow; [3]): 0
Plant response rating, Tall Mallow (tall mallow; [4]): 30
Tall Mallow plant response rating (tall mallow; [5]): 50
Tall Mallow plant response rating (tall mallow; [6]): 70
Plant response rating, Tall Mallow (tall mallow; Rate 250 g/ha): 80
Plant response rating, Guineagrass (guineagrass; [3]): 0
Plant response rating, Guineagrass (guineagrass; [4]): 0
Guineagrass plant response rating (guineagrass; [5]): 20
Plant response rating, Guineagrass (guineagrass; [5]): 100
Plant response rating, Guineagrass (guineagrass; [6]): 100
Plant response rating, Guineagrass (guineagrass; Rate 250 g/ha): 100
Plant response rating, Large crabgrass (large crabgrass; [3]): 0
Plant response rating, Large crabgrass (large crabgrass; [4]): 40
Plant response rating, Large crabgrass (large crabgrass; [5]): 100
Plant response rating, Large crabgrass (large crabgrass; [6]): 100
Plant response rating, Large crabgrass (large crabgrass; Rate 250 g/ha): 100
Plant response rating, Bermudagrass (bermuda-grass; [3]): 0
Plant response rating, Bermudagrass (bermuda-grass; [4]): 90
Plant response rating, Bermudagrass (bermuda-grass; [5]): 100
Plant response rating, Bermudagrass (bermuda-grass; [6]): 100
Plant response rating, Bermudagrass (bermuda-grass; Rate 250 g/ha): 100
Plant response rating, Dallisgrass (dallisgrass; [3]): 0
Plant response rating, Dallisgrass (dallisgrass; [4]): 30
Plant response rating, Dallisgrass (dallisgrass; [5]): 100
Plant response rating, Dallisgrass (dallisgrass; [6]): 100
Plant response rating, Dallisgrass (dallisgrass; Rate 250 g/ha): 100
Green foxtail plant response rating (Green foxtail [2]; Rate 64 g/ha): 100
Green foxtail plant response rating (Green foxtail [2]; Rate 125 g/ha): 100
Plant response rating, Sandbur (sandbur; [3]): 0
Plant response rating, Sandbur (sandbur; [4]): 20
Sandbur plant response rating (sandbur; [5]): 100
Sandbur plant response rating (sandbur; [6]): 100
Plant response rating, Sandbur (sandbur; Rate 250 g/ha): 90
Plant response rating, Johnsongrass (Johnson grass; [3]): 0
Plant response rating, Johnsongrass (Johnson grass; [4]): 0
Plant response rating, Johnsongrass (Johnson grass; [5]): 0
Plant response rating, Johnsongrass (Johnson grass; [6]): 0
Plant response rating, Johnsongrass (Johnson grass; Rate 250 g/ha): 100
Plant response rating, Alexandergrass (Alexandergrass; [3]): 0
Plant response rating, Alexandergrass (Alexandergrass; [4]): 0
Plant response rating, Alexandergrass (Alexandergrass; [5]): 100
Plant response rating, Alexandergrass (Alexandergrass; [6]): 90
Plant response rating, Alexandergrass (Alexandergrass; Rate 250 g/ha): 100
Plant response rating, Goosegrass (goosegrass; [3]): 0
Plant response rating, Goosegrass (goosegrass; [4]): 20
Plant response rating, Goosegrass (goosegrass; [5]): 100
Plant response rating, Goosegrass (goosegrass; [6]): 100
Plant response rating, Goosegrass (goosegrass; Rate 250 g/ha): 100
Plant response rating, Purple nutsedge (purple nutsedge; [3]): 0
Plant response rating, Purple nutsedge (purple nutsedge; [4]): 0
Purple nutsedge plant response rating (purple nutsedge; [5]): 0
Purple nutsedge plant response rating (purple nutsedge; [6]): 0
Plant response rating, Purple nutsedge (purple nutsedge; Rate 250 g/ha): 10
Plant response rating, C. ragweed (common ragweed; [3]): 0
Plant response rating, C. ragweed (common ragweed; [4]): 0
Plant response rating, C. ragweed (common ragweed; [5]): —30
Plant response rating, C. ragweed (common ragweed; [6]): 70
Plant response rating, C. ragweed (common ragweed; Rate 250 g/ha): 70
